Values of other authors as cited in US11739076B2, “Compound or its salt thereof targeting fibroblast activation protein, its preparation methods and its uses thereof” (Institute of Nuclear Energy Research Atomic Energy Council, …, priority 2021, dated 2023).

Experiments:
tumor = conditions: in vivo

Row | Structure (SMILES) | tumor uptake and tumor-to-tissue ratio (tumor) | accumulation in the oral mucosa, salivary glands and thyroid glands (tumor; po) | binding ratio of FAP and DDP4 (FAP and DDP4)
1 | CN(CCCN1CCN(C(=O)CN2CCN(CC(=O)O)CCN(CC(=O)O)CCN(CC(=O)O)CC2)CC1)c1ccc2nccc(C(=O)NCC(=O)N3CC(F)(F)C[C@H]3C#N)c2c1 [FAPI-46] | excellent tumor uptake and high tumor-to-tissue ratio | does not | –
2 | N#C[C@@H]1CCCN1C(=O)CNC(=O)c1ccnc2ccc(OCCCN3CCN(C(=O)CN4CCN(CC(=O)O)CCN(CC(=O)O)CCN(CC(=O)O)CC4)CC3)cc12 [FAPI-02] | – | – | 45
3 | N#C[C@@H]1CC(F)(F)CN1C(=O)CNC(=O)c1ccnc2ccc(OCCCN3CCN(C(=O)CN4CCN(CC(=O)O)CCN(CC(=O)O)CCN(CC(=O)O)CC4)CC3)cc12 [FAPI-04] | – | – | 750
